Data set [1] is described as follows: Intrinsic clearance in human liver microsomes. Format: in vitro ADME. Here is the method:
Intrinsic Clearance in Rat and Human Liver Microsomes
The in vitro intrinsic clearance (CL int) was investigated in commercially obtained hepatic microsomes from rat and human donors using the substrate depletion (i.e., loss-of-parent vs. time, or t 1/2 method) approach with analyte detection via liquid chromatography-tandem mass spectrometry (LC-MS/MS). For each species, mean %parent remaining values at each time point were calculated from replicates raw data (analyte:IS peak area ratios) and used to determine in vitro t 1/2 and CLint.
Experiments were carried out using a robot-assisted (TECAN model Evo 200). Compound was incubated (1 µM final concentration) in buffer (100 mM potassium phosphate pH 7.4 with 3 mM MgCl2) containing hepatic microsomes (0.5 mg/mL final concentration) from multiple species, discretely, at 37 °C under constant orbital shaking. After 5 minutes (pre-incubation), reactions were initiated by addition of nicotinamide adenine dinucleotide phosphate (NADPH, 1 mM final concentration). At selected time intervals (0, 3, 7, 15, 25, and 45 minutes) post-addition of NADPH, aliquots (50 µL) were taken and placed into a 96-shallow-well plate containing ice cold acetonitrile (150 µL) with carbamazepine (IS, 50 nM). The plates were then centrifuged (3000 rcf at 4 °C) for 10 minutes. The supernatants were transferred to a new 96-shallow-well daughter plate and diluted (1:1 v/v) with water (Milli-Q filtered). The plates were then sealed in preparation for LC-MS/MS analysis (see below).
Raw LC-MS/MS peak area data generated from the assay samples were used to construct natural log-transformed %parent remaining vs. time plots (using t = 0 minute post-NADPH addition sample data as starting point set to 100%). In vitro compound half-life (t 1/2) values were obtained using the following […]
k is the slope from linear regression analysis of the natural log-transformed data (using means from Where all replicates at each time point). Resulting t 1/2 values were then used to calculate hepatic CLint values according to the following equation and with the use of species-specific scale-up factors for liver weight (grams) per total body weight (kg): […]
CLint = in vitro t1/2 x 0.5 mg microsomes x 1 gram liver x kg body wt aScale-up factors used are 45 (rat) and 20 (human).2
Predicted hepatic clearance (CLhep) was calculated using the following equation: […]
Qh represents hepatic blood flow (mL/min/kg): 21 for human, 70 for rat, and 90 for mouse.
Prepared samples were injected (10 µL each) onto an AB Sciex Triple Quad 4500 mass spectrometer system with an Agilent 1260 Infinity II pump and autosampler. Mass spectrometer conditions are described in Table S1. Quantitation of compounds was performed via AB Sciex Multiquant software using the raw analyte:IS peak area ratios. The typical detection range was 0.5 ng/mL to ≥ 5,000 ng/mL utilizing a quadratic equation regression with 1/x2 weighting. […]
Table S1. LC-MS/MS Conditions*
Mobile phase A 0.5% Formic Acid in Water
Mobile phase B 0.5% Formic Acid in Acetonitrile
Gradient Time % Mobile Phase B
A general note: Liver microsomes are a subcellular fraction often used to study metabolism.

Another data set has as its target T1, hCav1.2 (Homo sapiens, UniProt Q13936).
T1 construct: Charles River Laboratories
Nature of the data set: Cardiac Ion Channel Panel – Charles River (QPatch HT patch clamp). The data set is classed as cell-based. The protocol:
(§1) page 17: Table S3. Cardiac Ion Channel Panel - Charles River Laboratories for VU6016235 Ion Channel Concentration Mean % Standard Standard n (μM) Inhibition Deviation Error hCav1.2 10 13.9 8.9 5.1 3 hCav3.2 10 6.7 2.7 1.4 4 hHCN2 10 2.6 1.9 1.1 3 hERG 10 10.9 0.9 0.4 4 hKv1.5 10 1.3 1.8 0.9 4 […] 10 4.1 5.6 2.8 4 hKv1.3 10 9 2.9 1.7 3 hNav1.5 (Tonic) 10 5.8 0.6 0.4 3 […] (Phasic) The in vitro effects of VU6016235 were evaluated at room temperature using the QPatch HT® (Sophion Bioscience A/S, Denmark), an automatic parallel patch clamp system. VU6016235 was evaluated at a concentration of 10 μM and tested in at least 3 cells (n ≥ 3). The duration of exposure to each test article concentration was at least 5 minutes. Rat Amphetamine-Induced Hyperlocomotion (AHL) Protocol Male Harlan Sprague Dawley rats with a mean body weight of 240 g (range 221-264 g) were tested in SmartFrame Open Field locomotor activity test chambers to automatically record locomotor activity. All […] for an additional 30 min with either vehicle or a dose of VU6016235 or the comparator M 4 PAM […] Next, rats were injected subcutaneously with vehicle or a dose of 0.75 mg/kg amphetamine and then monitored for an additional 60 min. Changes in locomotor activity were recorded for a total of 120 min. Locomotor data were expressed as the number of photobeam breaks/5 min intervals across the 120-min test session or as the total ambulation, calculated as sum of photobeam beam breaks from the time of amphetamine administration (60 min) until the end of the study (120 min). Time course data were analyzed by two-way ANOVA with main effects of treatment and time; changes in total ambulation were analyzed by one-way ANOVA followed by Dunnett's post hoc test (GraphPad Prism 7 [GraphPad Software, San Diego, CA]). For all tests, α ≤ 0.05 was considered to represent statistical significance. Finally, percent reversal data were calculated in Microsoft Excel using the following formula: Percent Reversal = 100 - {[(total ambulation in individual animal from t = 60 to t = 120) / (mean total ambulation S17

Another data set concerns the target T2, hCav3.2 (Homo sapiens, UniProt O95180).
T2 construct: Charles River Laboratories
The data set is described as above. The data set is classed as cell-based. The protocol: as §1

In the next data set the target is T3, hHCN2 (Homo sapiens, UniProt Q9UL51).
T3 construct: Charles River Laboratories
Described as above. The data set is classed as cell-based. Here is the method:
as §1

The target of another data set is T4, hKv1.3 (Homo sapiens, UniProt P22001).
T4 construct: Charles River Laboratories
Described as above. Format: cell-based. Here is the method: as §1

The target in the next data set is T5, hKv1.5 (Homo sapiens, UniProt P22460).
T5 construct: Charles River Laboratories
Described as above. The data set is classed as cell-based. Here is the method: as §1

A further data set has as its target T6, hKvLQT1/minK (Homo sapiens, UniProt P51787).
T6 construct: Charles River Laboratories
Described as above. The data set is classed as cell-based. Here is the method:
as §1

For another data set, the target named is T7, hNav1.5 (Phasic) (Homo sapiens, UniProt Q14524).
T7 construct: Charles River Laboratories
The data set is described as above. The data set is classed as cell-based. The protocol:
as §1

The next data set addresses T8, hNav1.5 (Tonic) (Homo sapiens, UniProt Q14524).
T8 construct: Charles River Laboratories
The description is as above. Format: cell-based. Here is the method:
as §1

The next data set concerns the target T9, Bradykinin B1 (Homo sapiens, UniProt P46663).
T9 construct: Eurofins Panlabs (contract screen)
Put plainly: Lead Profiling Screen – Eurofins Panlabs. Format: binding. Conditions: read-out: % inh at 10 μM.

Another data set has as its target T10, Endothelin ETB (Homo sapiens, UniProt P24530).
T10 construct: Eurofins Panlabs (contract screen)
Nature of the data set: Lead Profiling Screen – Eurofins Panlabs. The data set is classed as binding. Particulars: read-out: % inh at 10 μM.

The test system of another data set is Glutamate, Kainate. Put plainly: Lead Profiling Screen – Eurofins Panlabs. Format: binding, rat.
The target of another data set is Neuropeptide Y Y2 (Homo sapiens, UniProt P49146). Nature of the data set: Lead Profiling Screen – Eurofins Panlabs. The data set is classed as binding. Conditions: read-out: % inh at 10 μM.
Chain of Neuropeptide Y Y2 (P49146 whole entry): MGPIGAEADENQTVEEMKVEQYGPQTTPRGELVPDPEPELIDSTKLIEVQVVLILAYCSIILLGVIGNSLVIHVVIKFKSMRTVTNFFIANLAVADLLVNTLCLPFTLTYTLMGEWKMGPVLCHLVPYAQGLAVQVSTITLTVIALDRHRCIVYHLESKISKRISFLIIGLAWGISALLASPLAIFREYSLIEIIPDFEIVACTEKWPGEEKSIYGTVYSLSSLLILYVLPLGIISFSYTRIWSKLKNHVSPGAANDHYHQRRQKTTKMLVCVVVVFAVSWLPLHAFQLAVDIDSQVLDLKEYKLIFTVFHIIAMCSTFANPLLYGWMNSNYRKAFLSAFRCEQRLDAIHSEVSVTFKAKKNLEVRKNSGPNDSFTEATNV

T1 sequence (Q13936 whole entry): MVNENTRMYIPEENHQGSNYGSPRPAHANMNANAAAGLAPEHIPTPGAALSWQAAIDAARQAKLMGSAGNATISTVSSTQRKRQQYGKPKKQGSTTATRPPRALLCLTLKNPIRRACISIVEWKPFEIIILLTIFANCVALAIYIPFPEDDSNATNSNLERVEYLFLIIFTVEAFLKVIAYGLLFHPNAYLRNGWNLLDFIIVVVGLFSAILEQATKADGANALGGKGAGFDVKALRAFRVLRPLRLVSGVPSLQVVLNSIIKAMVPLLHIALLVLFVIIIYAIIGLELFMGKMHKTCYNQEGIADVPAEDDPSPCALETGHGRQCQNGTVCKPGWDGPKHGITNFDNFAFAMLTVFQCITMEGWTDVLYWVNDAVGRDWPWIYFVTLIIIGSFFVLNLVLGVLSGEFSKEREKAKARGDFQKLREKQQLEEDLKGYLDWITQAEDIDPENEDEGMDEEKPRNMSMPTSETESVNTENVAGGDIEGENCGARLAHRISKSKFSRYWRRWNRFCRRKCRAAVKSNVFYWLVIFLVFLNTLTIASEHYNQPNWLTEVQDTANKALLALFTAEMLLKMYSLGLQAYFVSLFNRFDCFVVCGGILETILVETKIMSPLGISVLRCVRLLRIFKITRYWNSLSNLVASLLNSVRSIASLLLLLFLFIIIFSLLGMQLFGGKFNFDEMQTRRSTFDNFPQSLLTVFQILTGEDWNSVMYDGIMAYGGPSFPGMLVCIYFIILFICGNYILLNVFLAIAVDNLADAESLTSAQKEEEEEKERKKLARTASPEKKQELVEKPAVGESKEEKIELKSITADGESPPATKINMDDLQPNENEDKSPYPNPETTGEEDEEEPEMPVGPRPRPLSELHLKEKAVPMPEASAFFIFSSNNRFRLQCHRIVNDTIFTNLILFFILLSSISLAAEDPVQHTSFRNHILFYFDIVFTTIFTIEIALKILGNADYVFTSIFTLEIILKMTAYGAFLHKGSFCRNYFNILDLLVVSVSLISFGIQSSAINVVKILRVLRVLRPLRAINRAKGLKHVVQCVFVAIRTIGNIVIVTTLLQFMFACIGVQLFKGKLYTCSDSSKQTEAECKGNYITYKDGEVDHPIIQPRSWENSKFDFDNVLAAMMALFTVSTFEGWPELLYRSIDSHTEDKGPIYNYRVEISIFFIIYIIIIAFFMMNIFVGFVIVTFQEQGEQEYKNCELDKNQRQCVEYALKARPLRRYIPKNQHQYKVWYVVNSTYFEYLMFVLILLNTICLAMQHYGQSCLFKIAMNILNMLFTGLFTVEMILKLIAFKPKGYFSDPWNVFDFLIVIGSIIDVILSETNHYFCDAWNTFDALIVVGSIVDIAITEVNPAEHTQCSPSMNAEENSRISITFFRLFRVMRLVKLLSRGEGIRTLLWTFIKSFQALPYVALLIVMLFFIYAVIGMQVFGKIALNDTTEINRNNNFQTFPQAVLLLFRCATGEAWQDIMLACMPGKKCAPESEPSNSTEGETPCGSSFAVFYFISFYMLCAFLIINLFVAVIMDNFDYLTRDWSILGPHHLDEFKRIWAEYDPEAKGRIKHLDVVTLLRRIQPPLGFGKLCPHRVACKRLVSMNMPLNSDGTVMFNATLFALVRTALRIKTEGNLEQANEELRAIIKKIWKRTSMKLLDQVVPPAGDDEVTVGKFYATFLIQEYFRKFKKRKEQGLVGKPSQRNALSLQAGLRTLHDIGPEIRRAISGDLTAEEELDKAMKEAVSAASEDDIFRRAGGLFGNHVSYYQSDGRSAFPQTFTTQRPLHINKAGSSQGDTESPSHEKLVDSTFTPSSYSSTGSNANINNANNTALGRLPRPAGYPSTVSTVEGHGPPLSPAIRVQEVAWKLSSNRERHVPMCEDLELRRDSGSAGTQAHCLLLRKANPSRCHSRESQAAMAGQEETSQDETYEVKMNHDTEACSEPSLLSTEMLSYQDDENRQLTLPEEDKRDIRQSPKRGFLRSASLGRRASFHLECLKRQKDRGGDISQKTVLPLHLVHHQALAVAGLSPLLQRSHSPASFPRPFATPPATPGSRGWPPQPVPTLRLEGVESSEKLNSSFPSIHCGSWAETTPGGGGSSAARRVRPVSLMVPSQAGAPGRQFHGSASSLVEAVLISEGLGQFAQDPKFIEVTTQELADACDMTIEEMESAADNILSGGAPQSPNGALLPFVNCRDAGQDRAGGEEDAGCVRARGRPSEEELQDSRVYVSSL
T1 sequence (Q08289 whole entry partner): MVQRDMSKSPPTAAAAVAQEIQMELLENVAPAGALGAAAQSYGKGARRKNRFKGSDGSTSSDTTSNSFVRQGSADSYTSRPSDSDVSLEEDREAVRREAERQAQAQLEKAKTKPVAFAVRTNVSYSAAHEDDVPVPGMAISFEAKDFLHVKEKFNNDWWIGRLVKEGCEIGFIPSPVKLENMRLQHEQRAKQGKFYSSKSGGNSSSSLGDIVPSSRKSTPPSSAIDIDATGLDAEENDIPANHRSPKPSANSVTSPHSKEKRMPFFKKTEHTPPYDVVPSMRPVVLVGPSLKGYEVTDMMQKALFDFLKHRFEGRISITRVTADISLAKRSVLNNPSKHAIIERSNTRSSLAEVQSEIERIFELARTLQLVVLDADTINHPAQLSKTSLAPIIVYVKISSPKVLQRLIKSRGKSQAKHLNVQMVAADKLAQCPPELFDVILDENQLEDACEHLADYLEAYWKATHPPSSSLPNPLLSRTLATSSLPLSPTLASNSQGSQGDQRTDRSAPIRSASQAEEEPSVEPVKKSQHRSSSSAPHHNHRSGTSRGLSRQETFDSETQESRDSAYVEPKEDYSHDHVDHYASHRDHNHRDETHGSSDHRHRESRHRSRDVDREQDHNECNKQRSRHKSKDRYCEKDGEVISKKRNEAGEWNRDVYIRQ
T1 sequence (P54289 25-946 partner limits assumed): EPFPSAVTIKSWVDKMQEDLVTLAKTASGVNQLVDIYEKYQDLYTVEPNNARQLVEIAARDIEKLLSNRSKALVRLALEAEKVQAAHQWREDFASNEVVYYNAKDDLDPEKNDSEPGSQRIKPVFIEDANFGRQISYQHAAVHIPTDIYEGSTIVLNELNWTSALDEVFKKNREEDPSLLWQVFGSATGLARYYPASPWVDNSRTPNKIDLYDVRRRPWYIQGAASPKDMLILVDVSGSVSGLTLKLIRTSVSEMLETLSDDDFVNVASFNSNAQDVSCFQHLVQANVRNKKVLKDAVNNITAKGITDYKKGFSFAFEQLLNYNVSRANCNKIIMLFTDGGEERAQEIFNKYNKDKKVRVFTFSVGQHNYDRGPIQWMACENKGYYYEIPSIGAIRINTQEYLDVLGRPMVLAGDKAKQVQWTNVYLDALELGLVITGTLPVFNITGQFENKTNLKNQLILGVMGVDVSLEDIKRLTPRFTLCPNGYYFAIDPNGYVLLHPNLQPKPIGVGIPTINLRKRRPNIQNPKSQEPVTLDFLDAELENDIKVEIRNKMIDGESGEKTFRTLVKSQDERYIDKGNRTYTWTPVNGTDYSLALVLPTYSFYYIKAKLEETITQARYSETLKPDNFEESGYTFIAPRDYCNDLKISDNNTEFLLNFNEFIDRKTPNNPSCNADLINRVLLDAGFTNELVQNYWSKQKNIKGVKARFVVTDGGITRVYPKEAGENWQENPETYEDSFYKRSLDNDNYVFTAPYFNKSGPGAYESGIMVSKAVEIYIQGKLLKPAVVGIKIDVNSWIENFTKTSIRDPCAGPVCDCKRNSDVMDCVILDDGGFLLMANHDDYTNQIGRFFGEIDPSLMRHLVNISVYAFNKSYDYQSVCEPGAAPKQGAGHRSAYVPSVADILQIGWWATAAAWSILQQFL
T1 sequence (P54289 947-1103 partner limits assumed): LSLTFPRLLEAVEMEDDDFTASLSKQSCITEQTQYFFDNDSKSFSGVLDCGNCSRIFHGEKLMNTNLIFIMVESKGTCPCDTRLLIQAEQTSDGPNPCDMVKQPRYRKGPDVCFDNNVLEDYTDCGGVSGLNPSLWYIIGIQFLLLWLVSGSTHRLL
T10 sequence (P24530 27-442): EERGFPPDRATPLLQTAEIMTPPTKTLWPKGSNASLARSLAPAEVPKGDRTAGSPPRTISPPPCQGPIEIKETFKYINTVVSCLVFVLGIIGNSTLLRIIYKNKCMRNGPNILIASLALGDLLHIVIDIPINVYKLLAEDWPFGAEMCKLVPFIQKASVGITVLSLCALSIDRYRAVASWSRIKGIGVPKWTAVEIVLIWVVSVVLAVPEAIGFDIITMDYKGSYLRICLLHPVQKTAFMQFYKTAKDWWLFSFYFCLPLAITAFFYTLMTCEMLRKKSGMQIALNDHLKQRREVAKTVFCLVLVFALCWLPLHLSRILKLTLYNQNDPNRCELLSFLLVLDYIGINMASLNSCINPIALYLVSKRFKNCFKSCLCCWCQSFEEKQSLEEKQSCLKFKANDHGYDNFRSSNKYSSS

As to `Cc1nc(C)c2c(n1)sc1c(NCc3ccc(C(C)(C)O)cc3)nccc12` [22g], in [1] (pH 7.4, human liver microsomes), the CLint scaled – broadly, a measure of how fast metabolising enzymes remove a compound, apart from limits set by blood flow – at 1 µM worked out at 26 mL/min/kg. Moreover, the “CLhep, human” value in data set [1] (predicted hepatic clearance from microsomal CLint) is 12 mL/min/kg. The inhibition at 10 µM on hCav1.2 worked out at 13.9%; at hCav3.2, 6.7%; on hHCN2 it was 2.6%; against hKv1.3 it was 9%; at hKv1.5, 1.3%; against hKvLQT1/minK it was 4.1%. The inhibition at 10 µM was 6.9% against hNav1.5 (Phasic); 5.8% against hNav1.5 (Tonic); -1% at Bradykinin B1; 6% on Endothelin ETB; 12% on Neuropeptide Y Y2. For the same compound, the “% inh at 10 μM” value in the data set on Glutamate, Kainate is -8%.

The values are drawn from paper PMC11487561 (ACS Chemical Neuroscience, 2024).
